Among the data in US7615557B2, “Tetrahydro-naphthalene and urea derivatives” (Xention Limited, priority 2003, dated 2009) are IC50 and melting point values, retold here.

Data set [1] deals with T1, Human vanilloid receptor (hVR1) (Homo sapiens, UniProt Q8NER1).
T1 construct: expressed in transfected cells
Put plainly: Capsaicin-induced Ca2+ influx in the human VR1-transfected CHO cell line (Assay 1). To be noted: human VR1-CHOluc9aeq cells, stimulation with 10 nM capsaicin, Fluo-3 fluorescence (FDSS-3000); read-out: Activity Class (IC50). Format: cell-based. An excerpt: [Measurement of Capsaicin-induced Ca^2+ influx in the Human VR1-transfected CHO Cell Line] (Assay 1)
• (1) Establishment of the Human VR1-CHOluc9aeq Cell Line • Human vanilloid receptor (hVR1) cDNA was cloned from libraries of axotomized dorsal root ganglia (WO 00/29577). The cloned hVR1 cDNA was constructed with pcDNA3 vector and transfected into a CHOluc9aeq cell line. The cell line contains aequorin and CRE-luciferase reporter genes as read-out signals. The transfectants were cloned by limiting dilution in selection medium (DMEM/F12 medium (Gibco BRL) supplemented with 10%
FCS, 1.4 mM Sodium pyruvate, 20 mM HEPES, 0.15% Sodium bicarbonate, 100 U/ml penicillin, 100 μg/ml streptomycin, 2 mM glutamine, non-essential amino acids and 2 mg/ml G418). Ca^2+ influx was examined in the capsaicin-stimulated clones. A high responder clone was selected and used for furter experiments in the project. The human VR1-CHOluc9aeq cells were maintained in the selection medium and passaged every 3-4 days at 1-2.5×10^5 cells/flask ([…]). • (2) Measurement of Ca^2+ Influx Using FDSS-3000 • Human VR1-CHOluc9aeq cells were suspended in a culture medium which is the same as the selection medium except for G418 and seeded at a density of 1,000 cells per well into 384-well plates (black walled clear-base/Nalge Nunc International). Following the culture for 48 hrs the medium was changed to 2 μM Fluo-3 AM (Molecular Probes) and 0.02% Puronic F-127 in assay buffer (Hank's balanced salt solution (HBSS), 17 mM HEPES (pH7.4), 1 mM Probenecid, 0.1% BSA) and the cells were incubated for 60 min at 25° C. After washing twice with assay buffer the cells were incubated with a test compound or vehicle for 20 min at 25° C. Mobilization of cytoplasmic Ca^2+ was measured by FDSS-3000 (λex=488 nm, λem=540 nm/Hamamatsu Photonics) for 60 sec after the stimulation with 10 nM capsaicin. Integral R was calculated and compared with controls. [Measurement of the Capsaicin-induced Ca^2+ Influx in Primary Cultured Rat Dorsal Root Ganglia Neurons] (Assay 2) • (1) Preparation of Rat Dorsal Root Ganglia Neurons • New born Wister rats (5-11 days) were sacrificed and dorsal root ganglia (DRG) was removed. DRG was incubated with 0.1% trypsin (Gibco BRL) in PBS(−) (Gibco BRL) for 30 min at 37° C., then a half volume of fetal calf serum (FCS) was added and the cells were spun down. The DRG neuron cells were resuspended in Ham F12/5% FCS/5% horse serum (Gibco BRL) and dispersed by repeated pipetting and passing through 70 μm mesh (Falcon). The culture plate was incubated for 3 hours at 37° C. to remove contaminating Schwann cells. Non-adherent cells were recovered and further cultured in laminin-coated 384 well plates (Nunc) at 1×10^4 cells/50 μl/well for 2 days in the presence of 50 ng/ml recombinant rat NGF (Sigma) and 50 μM 5-fluorodeoxyuridine (Sigma). • (2) Ca^2+ Mobilization Assay • DRG neuron cells were washed twice with HBSS supplemented with 17 mM BEPES (pH 7.4) and 0.1% BSA. After incubating with 2 μM fluo-3AM (Volectuar Probe), 0.02% PF127 (Gibco BRL) and 1 mM probenecid (Sigma) for 40 min at 37° C., cells were washed 3 times. The cells were incubated with VR1 antagonists or vehicle (dimethylsulfoxide) and then with 1 μM capsaicin in FDSS-6000 (λex=480 mn, λem=520 nm/Hamamatsu Photonics). The fluorescence changes at […] were monitored for 2.5 min. Integral R was calculated and compared with controls. [Organ Bath Assay to Measure the Capsaicin-induced Bladder Contraction] (Assay 3) • Male Wistar rats (10 week old) were anesthetized with ether and sacrificed by dislocating the necks. The whole urinary bladder was excised and placed in oxygenated Modified Krebs-Henseleit solution (pH 7.4) of the following composition (112 mM NaCl, 5.9 mM KCl, 1.2 mM MgCl2, 1.2 mM NaH2PO4, 2 mM CaCl2, […], 12 mM glucose). Contractile responses of the urinary bladder were studied as described previously [Maggi C A et al: Br. J. Pharmacol. 108: 801-805, 1993]. […]

T1 sequence (Q8NER1 whole entry): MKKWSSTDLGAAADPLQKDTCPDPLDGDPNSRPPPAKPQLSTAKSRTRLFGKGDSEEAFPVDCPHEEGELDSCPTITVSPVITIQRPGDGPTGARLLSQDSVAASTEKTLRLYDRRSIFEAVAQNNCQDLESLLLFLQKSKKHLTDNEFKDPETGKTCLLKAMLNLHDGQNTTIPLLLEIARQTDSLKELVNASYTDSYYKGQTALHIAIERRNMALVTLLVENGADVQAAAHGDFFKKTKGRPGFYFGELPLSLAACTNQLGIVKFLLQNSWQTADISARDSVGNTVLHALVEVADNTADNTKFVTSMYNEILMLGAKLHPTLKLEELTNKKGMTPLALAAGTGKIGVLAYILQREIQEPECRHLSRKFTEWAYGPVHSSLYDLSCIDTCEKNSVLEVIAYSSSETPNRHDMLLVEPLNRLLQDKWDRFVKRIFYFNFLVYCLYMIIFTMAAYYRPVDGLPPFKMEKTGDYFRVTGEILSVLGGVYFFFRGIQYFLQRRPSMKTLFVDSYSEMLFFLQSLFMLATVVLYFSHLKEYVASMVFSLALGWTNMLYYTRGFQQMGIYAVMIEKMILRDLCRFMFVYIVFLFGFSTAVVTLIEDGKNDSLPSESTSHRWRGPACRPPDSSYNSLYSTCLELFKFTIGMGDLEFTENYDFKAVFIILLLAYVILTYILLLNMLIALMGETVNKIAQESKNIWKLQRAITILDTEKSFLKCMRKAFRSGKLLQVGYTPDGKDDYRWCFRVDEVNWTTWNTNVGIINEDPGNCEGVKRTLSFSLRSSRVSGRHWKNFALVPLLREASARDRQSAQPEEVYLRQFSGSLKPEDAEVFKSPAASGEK

The term IC50 denotes the point on the concentration scale where inhibition reaches its midpoint. Regarding `O=C(Nc1cccc2c1C[C@@H](O)CC2)C1CCN(c2ccc(C(F)(F)F)cc2Cl)CC1` [Example 1-1, 1-[2-Chloro-4-(trifluoromethyl)phenyl]-N-[(7S)-7-hydroxy-5,6,7,8-tetrahydro-naphthalen-1-yl]piperidine-4-carboxamide], the IC50 in data set [1] was less than 0.1 µM. The same measure, in the same setting: to `O=C(Nc1cccc2c1C[C@H](O)CC2)C1CCN(c2cccc(Cl)c2)CC1` [Example 1-2, 1-[3-Chlorophenyl]-N-[(7R)-7-hydroxy-5,6,7,8-tetrahydronaphthalen-1-yl]piperidine-4-carboxamide] belongs less than 0.1 µM. As usually defined, the melting point is the temperature, or range, at which the solid turns liquid. Molecule `O=C(Nc1cccc2c1CC(O)CC2)C1CCN(c2ccccc2Cl)CC1` (stereo not shown) [Example 1-3] gave a melting point of 210 °C. The IC50 in data set [1] was less than 0.1 µM. The matching figures for `O=C(Nc1cccc2c1CC(O)CC2)C1CCN(c2ccccc2[N+](=O)[O-])CC1` (stereo not shown) [Example 1-4, N-(7-Hydroxy-5,6,7,8-tetrahydronaphthalen-1-yl)-1-(2-nitrophenyl)piperidine-4-carboxamide]: 170 °C and less than 0.1 µM.

`O=C(Nc1cccc2c1CC(O)CC2)C1CCN(c2ccc(C(F)(F)F)cc2[N+](=O)[O-])CC1` (stereo not shown) [Example 1-5, N-(7-Hydroxy-5,6,7,8-tetrahydronaphthalen-1-yl)-1-[2-nitro(trifluoromethyl)phenyl]piperidine-4-carboxamide] registered a melting point of 218 °C. Further, the IC50 in data set [1] was less than 0.1 µM. The matching figures for `O=C(Nc1cccc2c1CC(O)CC2)C1CCN(c2ccccc2F)CC1` (stereo not shown) [Example 1-6, 1-(2-Fluorophenyl)-N-(7-hydroxy-5,6,7,8-tetrahydronaphthalen-1-yl)piperidine-4-carboxamide]: 207 °C and less than 0.1 µM. In the same order, the values of `O=C(Nc1cccc2c1CC(O)CC2)C1CCN(c2ccc(F)cc2)CC1` (stereo not shown) [Example 1-7, 1-(4-Fluorophenyl)-N-(7-hydroxy-5,6,7,8-tetrahydronaphthalen-1-yl)piperidine-4-carboxamide] are 205 °C and less than 0.1 µM. For `O=C(Nc1cccc2c1CC(O)CC2)C1CCN(c2ccc(Cl)cc2C(F)(F)F)CC1` (stereo not shown) [Example 1-8, 1-[4-Chloro-2-(trifluoromethyl)phenyl]-N-(7-hydroxy-5,6,7,8-tetrahydronaphthalen-1-yl)piperidine-4-carboxamide], the melting point worked out at 182 °C. The half-maximal inhibitory concentration (IC50) in data set [1] is less than 0.1 µM. `O=C(Nc1cccc2c1CC(O)CC2)C1CCN(c2ccc(C(F)(F)F)cc2)CC1` (stereo not shown) [Example 1-9, N-(7-Hydroxy-5,6,7,8-tetrahydronaphthalen-1-yl)-1-[4-(trifuoromethyl)phenyl]piperidine-4-carboxamide] came in with a melting point of 222 °C. Besides, the 50% inhibitory concentration (IC50) in data set [1] was less than 0.1 µM. Consider `O=C(Nc1cccc2c1CC(O)CC2)C1CCN(c2ccc(C(F)(F)F)cc2Cl)CC1` (stereo not shown) [Example 1-10, 1-[2-Chloro-4-(trifluoromethyl)phenyl]-N-(7-hydroxy-5,6,7,8-tetrahydronaphthalen-1-yl)piperidine-4-carboxamide], for which the melting point came out at 226 °C. In addition, the IC50 in data set [1] is less than 0.1 µM. The matching figures for `O=C(Nc1cccc2c1C[C@H](O)CC2)C1CCN(c2ccc(F)cc2)CC1` [Example 1-11, 1-(4-Fluorophenyl)-N-[(7R)-7-hydroxy-5,6,7,8-tetrahydronaphthalen-1-yl]piperidine-4-carboxamide]: 205 °C and less than 0.1 µM. Consider `O=C(Nc1cccc2c1C[C@@H](O)CC2)C1CCN(c2ccc(F)cc2)CC1` [Example 1-12, 1-(4-Fluorophenyl)-N-[(7S)-7-hydroxy-5,6,7,8-tetrahydronaphthalen-1-yl]piperidine-4-carboxamide], for which the melting point is 205 °C. In data set [1], the concentration for half-maximal inhibition (IC50) is less than 0.1 µM. Take `O=C(Nc1cccc2c1C[C@H](O)CC2)C1CCN(c2ccccc2)CC1` [Example 1-14]: in data set [1], the 50% inhibitory concentration (IC50) was less than 0.1 µM.

Turning to `O=C(Nc1cccc2c1C[C@H](O)CC2)C1CCN(c2cccc(C(F)(F)F)c2)CC1` [Example 1-15, N-[(7R)-7-Hydroxy-5,6,7,8-tetrahydronaphthalen-1-yl]-1-[3-trifluoromethyl-phenyl]piperidine-4-carboxamide], the IC50 in data set [1] was less than 0.1 µM. For `O=C(Nc1cccc2c1C[C@H](O)CC2)C1CCN(c2cccc(OC(F)(F)F)c2)CC1` [Example 1-16, N-[(7R)-7-Hydroxy-5,6,7,8-tetrahydronaphthalen-1-yl]-1-[3-trifluoromethoxy-phenyl]piperidine-4-carboxamide], in data set [1], the IC50 is less than 0.1 µM.

Turning to `O=C(Nc1cccc2c1C[C@H](O)CC2)C1CCN(c2ccc(Cl)cc2Cl)CC1` [Example 1-17, 1-[2,4-Dichlorophenyl]-N-[(7R)-7-hydroxy-5,6,7,8-tetrahydronaphthalen-1-yl]piperidine-4-carboxamide], in data set [1], the half-maximal inhibitory concentration (IC50) is less than 0.1 µM. The same measure, in the same setting: to `O=C(Nc1cccc2c1C[C@H](O)CC2)C1CCN(c2ccc(OC(F)(F)F)c(OC(F)(F)F)c2)CC1` [Example 1-18, 1-[3,4-Bis[trifluoromethoxy]phenyl]-N-[(7R)-7-hydroxy-5,6,7,8-tetrahydro-naphthalen-1-yl]piperidine-4-carboxamide] belongs less than 0.1 µM; to `O=C(Nc1cccc2c1C[C@H](O)CC2)C1CCN(c2ccc(OC(F)(F)F)cc2)CC1` [Example 1-19, N-[(7R)-7-Hydroxy-5,6,7,8-tetrahydronaphthalen-1-yl]-1-[4-trifluoromethoxy-phenyl]piperidine-4-carboxamide], less than 0.1 µM; to `O=C(Nc1cccc2c1C[C@H](O)CC2)C1CCN(c2nccc(C(F)(F)F)n2)CC1` [Example 1-20, N-[(7R)-7-Hydroxy-5,6,7,8-tetrahydronaphthalen-1-yl]-1-[4-trifluoromethyl-pyrimidin-2-yl]-piperidine-4-carboxamide], less than 0.1 µM.

For the molecule `O=C(Nc1cccc2c1C[C@H](O)CC2)C1CCN(c2ncc(Cl)cn2)CC1` [Example 1-21, 1-[5-Chloropyrimidin-2-yl]-N-[(7R)-7-hydroxy-5,6,7,8-tetrahydronaphthalen-1-yl]piperidine-4-carboxamide], the IC50 in data set [1] was less than 0.1 µM.

For `O=C(Nc1cccc2c1C[C@H](O)CC2)C1CCN(c2ccc([N+](=O)[O-])cc2Cl)CC1` [Example 1-22, 1-[2-Chloro-4-nitrophenyl]-N-[(7R)-7-hydroxy-5,6,7,8-tetrahydronaphthalen-1-yl]piperidine-4-carboxamide], in data set [1], the IC50 is less than 0.1 µM. As to `CC(=O)Nc1cc(C(F)(F)F)ccc1N1CCC(C(=O)Nc2cccc3c2C[C@H](O)CC3)CC1` [Example 1-23], the IC50 in data set [1] is less than 0.1 µM.

In the case of `O=C(Nc1cccc2c1C[C@H](O)CC2)C1CCN(c2ccc(C(F)(F)F)cn2)CC1` [Example 1-24, N-[(7R)-7-Hydroxy-5,6,7,8-tetrahydronaphthalen-1-yl]-1-[5-(trifluoromethyl)-pyridin-2-yl]piperidine-4-carboxamide], the 50% inhibitory concentration (IC50) in data set [1] was less than 0.1 µM. Same read-out and setting: the value for `O=C(Nc1cccc2c1C[C@H](O)CC2)C1CCN(c2ccc(C(F)(F)F)cc2)CC1` [Example 1-25, N-[(7R)-7-Hydroxy-5,6,7,8-tetrahydronaphthalen-1-yl]-1-[4-trifluoromethyl-phenyl]piperidine-4-carboxamide] was less than 0.1 µM.
